Results taken from US20050192279A1, “Pyridazinones as antagonists of alpha4 integrins” (priority 2004, published 2005).

Legend:
α4β1 = target: T1, α4β1 (Homo sapiens, UniProt P05556+P13612); assay: Ramos Cell Adhesion Assay (α4β1 Mediated Adhesion/VCAM-1); format: cell-based; conditions: Ramos cell adhesion to hVCAM-1; read-out: α4β1 IC50
T1 construct: Ramos Cell Adhesion Assay (α4β1 Mediated Adhesion/VCAM-1); endogenous in cells; host or cells: Ramos cells
Description: Ramos Cell Adhesion Assay (α4β1 Mediated Adhesion/VCAM-1)
Immulon 96 well plates (Dynex) were coated with 100 μL recombinant hVCAM-1 at 4.0 μg/mL in 0.05 M NaCO3 buffer pH 9.0 overnight at 4° C. (R&D Systems). Plates were washed 2 times in PBS with 1% BSA and blocked for 1 h @ room temperature in this buffer. PBS was removed and compounds to be tested (50 μL) were added at 2× concentration. Ramos cells, (50 μL at 2×10^6/mL) labeled with 5 μM Calcein AM (Molecular Probes) for 1 h at 37° C., were added to each well and allowed to adhere for 1 h at room temperature. Plates were washed 4× in PBS+1% BSA and cells were lysed for 15 minutes in 100 μL of 1 M Tris pH 8.0 with 1% SDS.

human α4β7 integrin = target: T2, human α4β7 integrin (Homo sapiens, UniProt P13612+P26010); assay: α4β7-K562 Cell Adhesion Assay (α4β7 Mediated Adhesion/MAdCAM-1); format: cell-based; conditions: α4β7-K562 cell adhesion to hMAdCAM-1; read-out: α4β7 IC50
T2 construct: expressed in transfected cells; host or cells: K562 cells, stably transfected
T2 sequence (P13612 34-1032): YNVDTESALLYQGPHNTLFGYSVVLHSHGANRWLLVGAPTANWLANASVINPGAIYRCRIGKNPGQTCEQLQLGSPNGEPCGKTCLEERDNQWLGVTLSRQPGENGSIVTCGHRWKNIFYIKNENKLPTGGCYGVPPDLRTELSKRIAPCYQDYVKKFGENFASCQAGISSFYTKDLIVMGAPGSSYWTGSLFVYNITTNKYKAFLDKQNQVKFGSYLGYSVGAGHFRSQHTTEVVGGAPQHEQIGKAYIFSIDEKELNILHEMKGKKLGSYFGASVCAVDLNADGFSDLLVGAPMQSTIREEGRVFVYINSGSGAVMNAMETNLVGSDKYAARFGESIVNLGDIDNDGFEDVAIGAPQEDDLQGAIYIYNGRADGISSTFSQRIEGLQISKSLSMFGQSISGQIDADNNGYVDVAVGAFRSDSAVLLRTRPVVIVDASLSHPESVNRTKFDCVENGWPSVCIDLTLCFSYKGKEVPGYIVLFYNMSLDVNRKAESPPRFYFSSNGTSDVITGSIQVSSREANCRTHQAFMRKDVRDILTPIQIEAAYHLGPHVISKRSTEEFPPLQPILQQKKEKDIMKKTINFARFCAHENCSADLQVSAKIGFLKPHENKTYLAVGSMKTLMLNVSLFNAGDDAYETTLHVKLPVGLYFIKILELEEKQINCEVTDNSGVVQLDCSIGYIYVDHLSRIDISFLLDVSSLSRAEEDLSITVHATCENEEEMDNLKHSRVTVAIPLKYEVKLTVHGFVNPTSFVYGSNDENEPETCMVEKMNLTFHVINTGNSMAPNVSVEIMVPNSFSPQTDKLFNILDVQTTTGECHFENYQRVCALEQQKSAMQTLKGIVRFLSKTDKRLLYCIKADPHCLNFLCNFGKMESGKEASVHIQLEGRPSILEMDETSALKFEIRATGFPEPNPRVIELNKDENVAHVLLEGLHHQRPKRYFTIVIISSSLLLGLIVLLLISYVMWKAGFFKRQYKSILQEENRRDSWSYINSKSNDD
T2 sequence (P26010 20-798): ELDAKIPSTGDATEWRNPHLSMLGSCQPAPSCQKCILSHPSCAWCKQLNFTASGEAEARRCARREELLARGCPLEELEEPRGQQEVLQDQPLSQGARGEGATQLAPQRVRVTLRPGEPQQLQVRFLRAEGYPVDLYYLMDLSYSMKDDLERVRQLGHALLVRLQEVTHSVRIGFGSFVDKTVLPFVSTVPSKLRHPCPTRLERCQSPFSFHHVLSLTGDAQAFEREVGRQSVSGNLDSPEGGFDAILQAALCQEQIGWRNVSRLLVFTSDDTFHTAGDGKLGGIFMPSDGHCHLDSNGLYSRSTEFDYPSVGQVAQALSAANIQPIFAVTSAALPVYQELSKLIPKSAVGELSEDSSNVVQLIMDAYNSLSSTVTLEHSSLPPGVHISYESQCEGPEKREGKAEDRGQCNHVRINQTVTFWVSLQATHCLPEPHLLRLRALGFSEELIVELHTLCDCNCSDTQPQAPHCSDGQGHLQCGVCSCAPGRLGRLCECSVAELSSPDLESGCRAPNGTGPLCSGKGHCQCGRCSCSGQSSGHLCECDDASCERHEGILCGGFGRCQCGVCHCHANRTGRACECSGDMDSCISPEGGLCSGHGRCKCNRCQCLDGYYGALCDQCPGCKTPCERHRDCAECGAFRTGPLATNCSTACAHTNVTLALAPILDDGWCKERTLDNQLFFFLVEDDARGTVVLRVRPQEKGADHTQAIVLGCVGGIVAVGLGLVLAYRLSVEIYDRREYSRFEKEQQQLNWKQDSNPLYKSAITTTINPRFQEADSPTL
Description: α4β7-K562 Cell Adhesion Assay (α4β7 Mediated Adhesion/MAdCAM-1)
M2 anti-FLAG Antibody Coated 96-well plates (Sigma) were coated for 1 hour at 4° C. with 2-8 μl/well recombinant FLAG-hMAdCAM-1 contained in 100 μL of Dulbecco's PBS, pH 7.4, with 1% BSA and 1 mM Mn ^+2 (PBS-BSA-Mn). Plates were washed once with PBS-BSA-Mn. Buffer was removed and compounds to be tested (50 μL) were added at 2× concentration. Stably transfected K562 cells expressing human α4β7 integrin, (50 μL at 2×10^6/mL) that had been labeled with 100 μg/ml carboxymethyl fluorescein diacetate succinimidyl ester (CFDA-SE; Molecular Probes) for 15 min at 37° C. were added to each well and allowed to adhere for 1 h at room temperature. Plates were washed 4× in PBS-BSA-Mn and then cells were lysed for 2 minutes by addtion of 100 μL of PBS without Ca, Mg supplemented with 0.1 M NaOH.

T1 sequence (P05556 21-798, one chain of several): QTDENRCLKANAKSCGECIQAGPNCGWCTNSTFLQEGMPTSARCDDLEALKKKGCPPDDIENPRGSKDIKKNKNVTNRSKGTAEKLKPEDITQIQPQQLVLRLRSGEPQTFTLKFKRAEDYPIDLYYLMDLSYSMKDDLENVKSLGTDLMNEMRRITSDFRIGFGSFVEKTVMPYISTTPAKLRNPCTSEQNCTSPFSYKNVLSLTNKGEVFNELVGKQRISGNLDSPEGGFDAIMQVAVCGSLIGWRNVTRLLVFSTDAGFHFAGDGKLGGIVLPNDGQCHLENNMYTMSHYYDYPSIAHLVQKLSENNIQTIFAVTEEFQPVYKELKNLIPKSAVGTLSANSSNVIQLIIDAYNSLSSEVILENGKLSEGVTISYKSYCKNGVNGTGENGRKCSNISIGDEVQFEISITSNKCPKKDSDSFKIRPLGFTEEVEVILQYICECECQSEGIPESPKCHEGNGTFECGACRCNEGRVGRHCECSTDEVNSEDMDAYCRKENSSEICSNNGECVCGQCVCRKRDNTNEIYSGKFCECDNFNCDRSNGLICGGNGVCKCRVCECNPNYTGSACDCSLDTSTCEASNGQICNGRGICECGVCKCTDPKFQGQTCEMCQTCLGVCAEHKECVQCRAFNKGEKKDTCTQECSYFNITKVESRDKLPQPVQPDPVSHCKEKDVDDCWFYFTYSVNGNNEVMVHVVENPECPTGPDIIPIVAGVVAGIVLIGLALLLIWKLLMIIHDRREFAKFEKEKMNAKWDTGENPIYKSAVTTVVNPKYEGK

Row | Structure (SMILES) | IC50 (α4β1) [nM] | IC50 (human α4β7 integrin) [nM]
1 | COc1cnn(C)c(=O)c1-c1ccc(C[C@H](NC(=O)C23CCC(CC2)CN3C)C(=O)O)cc1 [Cpd 135] | > 1000 | 165
2 | COc1cnn(C)c(=O)c1-c1ccc(C[C@H](NC(=O)C2(c3ccc(F)cc3)CCCC2)C(=O)O)cc1 [Cpd 132] | > 5000 | 152
3 | O=C(N[C@@H](Cc1ccc(-c2c(O)cn[nH]c2=O)cc1)C(=O)O)c1c(Cl)cccc1Cl [Cpd 168] | > 1000 | 490
4 | COc1cnn(C)c(=O)c1-c1ccc(C[C@H](NC(=O)c2cccn(C)c2=O)C(=O)O)cc1 [Cpd 193] | > 5000 | 1160
5 | COc1cnn(CCO)c(=O)c1-c1ccc(C[C@H](NC(=O)OC(C)(C)C)C(=O)OCCO)cc1 [Cpd 212] | > 5000 | > 5000
6 | Cn1ncc(CC(=O)O)c(-c2ccc(C[C@H](NC(=O)c3c(Cl)cccc3Cl)C(=O)O)cc2)c1=O [Cpd 152] | > 5000 | 282
7 | COc1cnn(C)c(=O)c1-c1ccc(C[C@H](NC(=O)CN(C)C)C(=O)O)cc1 [Cpd 173] | > 5000 | 575
8 | COc1cnn(CCN2CCOCC2)c(=O)c1-c1ccc(C[C@H](NC(=O)[C@H](N)C(C)C)C(=O)O)cc1 [Cpd 210] | > 5000 | 4650
9 | COc1cnn(C)c(=O)c1-c1ccc(C[C@H](NC(=O)C2(NC(C)C)CC2)C(=O)O)cc1 [Cpd 146] | 218 | 
10 | CC(C)COC(=O)N[C@@H](Cc1ccc(-c2c(OCC(C)C)cnn(C)c2=O)cc1)C(=O)O [Cpd 111] | > 5000 | 82
11 | Cn1ncc(OC(F)F)c(-c2ccc(C[C@H](NC(=O)c3c(Cl)cccc3Cl)C(=O)O)cc2)c1=O [Cpd 112, (S)-2-(2,6-Dichloro-benzoylamino)-3-[4-(5-difluoromethoxy-2-methyl-3-oxo-2,3-dihydro-pyridazin-4-yl)-phenyl]-propionic acid] | 289 | 85
12 | COc1cnn(C)c(=O)c1-c1ccc(C[C@H](NC(=O)[C@@H]2C3CCC(CC3)N2C(=O)Cc2ccsc2)C(=O)O)cc1 [Cpd 113] | 44 | 88
13 | COc1cnn(C)c(=O)c1-c1ccc(C[C@H](NC(=O)C2(OCc3ccccc3)CC2)C(=O)O)cc1 [Cpd 230] |  | 92
14 | COc1cnn(C)c(=O)c1-c1ccc(C[C@H](NC(=O)O[C@H](C)c2ccccc2)C(=O)O)cc1 [Cpd 209] | > 5000 | 3140
15 | COc1cnn(Cc2ccccc2)c(=O)c1-c1ccc(C[C@H](NC(=O)c2c(Cl)cccc2Cl)C(=O)O)cc1 [Cpd 117] | 518 | 102
16 | COc1cnn(C)c(=O)c1-c1ccc(C[C@H](NC(=O)NC2CCCCC2)C(=O)O)cc1 [Cpd 219] | > 5000 | 852
17 | COc1cnn(C)c(=O)c1-c1ccc(C[C@H](NC(=O)CCC(C)(C)C)C(=O)O)cc1 [Cpd 206] | 3300 | 2550
18 | COc1cnn(C)c(=O)c1-c1ccc(C[C@H](NC(=O)OC(C)(C)C)C(=O)O)cc1 [Cpd 183] |  | 805
19 | COc1cnn(C2CCCCC2)c(=O)c1-c1ccc(C[C@H](NC(=O)c2c(Cl)cccc2Cl)C(=O)O)cc1 [Cpd 165] |  | 471
20 | COC(=O)N[C@@H](Cc1ccc(-c2c(OC)cnn(C)c2=O)cc1)C(=O)O [Cpd 178] |  | 706
21 | COc1cnn(C)c(=O)c1-c1ccc(C[C@H](NC(=O)C2(NC(C)C)CC2)C(=O)O)cc1 [Cpd 3] | > 5000 | 
22 | CCOC(=O)[C@H](Cc1ccc(-c2c(OC)cnn(C)c2=O)cc1)NC(=O)c1c(Cl)cccc1Cl [Cpd 1] | > 5000 | 

More lines, in order of falling IC50 (human α4β7 integrin), values ahead:

Row | IC50 (α4β1) [nM] | IC50 (human α4β7 integrin) [nM] | Structure (SMILES)
23 | 264 | 60 | COc1cnn(C)c(=O)c1-c1ccc(C[C@H](NC(=O)C23CCC(CC2)CN3)C(=O)O)cc1 [Cpd 99]
24 | 936 | 59 | COc1cnn(C)c(=O)c1-c1ccc(C[C@H](NC(=O)C2(NC(C)C)CCOCC2)C(=O)O)cc1 [Cpd 42]
25 | > 5000 | 52 | O=C(N[C@@H](Cc1ccc(-c2c(Cl)cnn(CC3CC3)c2=O)cc1)C(=O)O)c1c(Cl)cccc1Cl [Cpd 93, (S)-3-[4-(5-Chloro-2-cyclopropylmethyl-3-oxo-2,3-dihydro-pyridazin-4-yl)-phenyl]-2-(2,6-dichloro-benzoylamino)-propionic acid]
26 | 1020 | 41 | COc1cn[nH]c(=O)c1-c1ccc(C[C@H](NC(=O)c2c(Cl)cccc2Cl)C(=O)O)cc1 [Cpd 83]
27 | 473 | 24 | CN[C@H](C(=O)N[C@@H](Cc1ccc(-c2c(OC)cnn(C)c2=O)cc1)C(=O)O)[C@@H](C)OCc1ccccc1 [Cpd 68]
28 | 1070 | 23 | COc1cnn(C)c(=O)c1-c1ccc(CC(NC(=O)C(C(C)C)n2c(C)ccc2C)C(=O)O)cc1 (stereo not drawn) [Cpd 214]
29 | 155 | 20 | Cn1ncc(OC2CCCC2)c(-c2ccc(C[C@H](NC(=O)c3c(Cl)cccc3Cl)C(=O)O)cc2)c1=O [Cpd 60]
30 | > 5000 | 18 | COc1cnn(C)c(=O)c1-c1ccc(CC(NC(=O)C(NC(=O)OC(C)(C)C)C(C)C)C(=O)O)cc1 (mixture of isomers) [Cpd 58]
31 | 4020 | 17 | CNC(C(=O)NC(Cc1ccc(-c2c(OC)cnn(C)c2=O)cc1)C(=O)O)C(C)C (single isomer, unassigned) [Cpd 54]
32 | 486 | 14 | Cn1ncc(Cl)c(-c2ccc(C[C@H](NC(=O)c3c(Cl)cccc3Cl)C(=O)O)cc2)c1=O [Cpd 49]
33 | 1280 | 10 | COc1cnn(C)c(=O)c1-c1ccc(CC(NC(=O)C2(C(=O)NC(Cc3ccc(-c4c(OC)cnn(C)c4=O)cc3)C(=O)O)CC2)C(=O)O)cc1 (stereo not drawn) [Cpd 133]
34 | 474 | 9 | Cn1ncc(OCC(F)(F)F)c(-c2ccc(C[C@H](NC(=O)c3c(Cl)cccc3Cl)C(=O)O)cc2)c1=O [Cpd 37]
35 | 535 | 6 | COc1cnn(CC(C)=O)c(=O)c1-c1ccc(C[C@H](NC(=O)c2c(Cl)cccc2Cl)C(=O)O)cc1 [Cpd 228]
